Among the data in patent EP0134922A1, “2-Piperazino-pteridines, processes for their preparation and medicaments containing these compounds” (Dr. Karl Thomae GmbH, priority 1983, dated 1985) are LD50 and Tieren gestorben values, retold here.

Where two headings read alike, the source gives them in different places. Where only a bound is given, the exact number is not on record here.

Data set [1] can be described thus: Orienting acute toxicity after a single oral dose. The following applies: mouse, in vivo, read-out: Orientierende aktute Toxizität. An excerpt:
(§1) Die orientierende akute Toxizität der zu untersuchenden Substanzen wurde orientierend an Gruppen von je 5 Mäusen nach oraler Gabe einer Einzeldosis bestimmt (Beobachtungszeit: 14 Tage): […]

Data set [2] deals with Mäusen. The data set can be described thus: Orienting acute toxicity after a single oral dose. The following applies: in vivo, po, 250 mg/kg.
Text: as §1

Where [3] appears, read: mice, groups of 5, oral single dose, observation time 14 days.

In the case of `c1ccc(CSc2nc3c(N4CCOCC4)nc(N4CCNCC4)nc3nc2N2CCOCC2)cc1` [Substanz A, 6-Benzylthio-4,7-dimorpholino-2-piperazino-pteridin], the LD50 at 336 h in data set [1] (setting [3]) is above 250 mg/kg. Also, in data set [2], the Tieren gestorben was 0 von 5.
On to `CN(C)c1nc2nc(N3CCNCC3)nc(N(C)C)c2nc1Cl` [Substanz B, 6-Chlor-4,7-bis-(dimethylamino)-2-piperazino-pteridin], for which the LD50 at 336 h in data set [1] (po) was above 250 mg/kg. In data set [2], this compound yielded a Tieren gestorben of 0 von 5.
Take `CN(C)c1nc2nc(N3CCNCC3)nc(N(C)C)c2nc1SCc1ccccc1` [Substanz C, 6-Benzylthio-4,7-bis-(dimethylamino)-2-piperazino-pteridin]: the LD50 at 336 h in data set [1] (setting [3]) was above 250 mg/kg. The Tieren gestorben in data set [2] is 0 von 5.
Consider `CN(C)c1nc(N2CCNCC2)nc2nc(NCc3ccccc3)c(Cl)nc12` [Substanz E, 6-Chlor-2-piperazino-4-dimethyl-amino-7-benzylamino-pteridin], for which the LD50 at 336 h in data set [1] (po) is above 250 mg/kg. This compound also gave a Tieren gestorben in data set [2] of 0 von 5.
As for `CSc1nc2c(N3CC[S+]([O-])CC3)nc(N3CCNCC3)nc2nc1NCc1ccccc1` [Substanz D, 7-Benzylamino-6-methylthio-4-(1-oxidothiomorpholino)-2-piperazino-pteridin], the LD50 at 336 h in data set [1] (setting [3]) is above 250 mg/kg. For the same compound, in data set [2], the Tieren gestorben was 0 von 5.
